{
  "source": "patent US20250312433A1",
  "about": "“Process for Producing of Vaccine Formulations With Preservatives” (priority 2022, published 2025)",
  "key": {"[1]": {"assay": "Dissolution time of 2-PE in Succinate Buffered Saline (visual observation)", "format": "physicochemical", "conditions": "300 rpm, about 20° C.; for 2-PE bulk dissolution Time: all dissolved besides up to approximately 5 small particles", "experimental": "(§1) The objective of this study was to evaluate the dissolution time and solubility of 2-phenoxyethanol (2-PE). 2-PE dissolution and concentration were evaluated at the following concentrations in Succinate Buffered Saline (SBS) (5 mM succinate, 150 mM NaCl, pH 5.8); 11 g/L, 16.5 g/L, and 20 g/L.\n(§2) Appropriate amount of 2-PE was weighed out in 400 ml beaker and appropriate amount of succinate buffered saline was added. Agitation speed was 300 rpm and solution temperature about 20° C. The time for complete dissolution based on visual observation was recorded. 2-PE concentration was measured by RP-HPLC."}, "[2]": {"assay": "2-PE concentration / solubility in Succinate Buffered Saline by RP-HPLC", "format": "physicochemical", "conditions": "for Measured 2-PE concentration: RP-HPLC", "experimental": "as §1, §2"}},
  "data": [
    {"smiles": "OCCOc1ccccc1", "note": "[2-PE, 2-phenoxyethanol]", "values": [
      {"measurement": "2-PE bulk dissolution Time", "setting": "[1]; 11 mg/mL 2-PE in SBS (5 mM succinate, 150 mM NaCl, pH 5.8)", "value": 7, "unit": "min"},
      {"measurement": "2-PE bulk dissolution Time", "setting": "[1]; 16.5 mg/mL 2-PE in SBS", "value": 9, "unit": "min"},
      {"measurement": "2-PE bulk dissolution Time", "setting": "[1]; 20 mg/mL 2-PE in SBS", "value": 15, "unit": "min"},
      {"measurement": "2-PE complete dissolution time", "setting": "[1]; 20 mg/mL 2-PE in SBS, all small particles dissolved", "value": 35, "unit": "min"},
      {"measurement": "measured 2-PE concentration below the target concentration", "setting": "[2]; all concentrations (11, 16.5, 20 mg/mL) in SBS", "value": "approximately 5%"},
      {"measurement": "solubility", "setting": "[2]; aqueous buffer, thermodynamic from solid, succinate-buffered saline (pH 5.8) at 20° C.", "value": "≥ 19.1", "unit": "mg/mL"},
      {"measurement": "Percent Difference (measured − target)/target × 100", "setting": "[2]; target 11.0 mg/mL in SBS", "value": "−4.5", "unit": "%"},
      {"measurement": "Measured 2-PE concentration", "setting": "[2]; target 11.0 mg/mL in SBS", "value": 10.5, "unit": "mg/mL"},
      {"measurement": "Percent Difference (measured − target)/target × 100", "setting": "[2]; target 16.5 mg/mL in SBS", "value": "−5.5", "unit": "%"},
      {"measurement": "Measured 2-PE concentration", "setting": "[2]; target 16.5 mg/mL in SBS", "value": 15.6, "unit": "mg/mL"},
      {"measurement": "Percent Difference (measured − target)/target × 100", "setting": "[2]; target 20.0 mg/mL in SBS", "value": "−4.5", "unit": "%"},
      {"measurement": "Measured 2-PE concentration", "setting": "[2]; target 20.0 mg/mL in SBS", "value": 19.1, "unit": "mg/mL"}
    ]}
  ]
}
